Measurements taken from US11136432B2, “Method for producing polyisothianaphthene-based electroconductive polymer” (SHOWA DENKO K.K., priority 2016, dated 2021).

How the values were obtained:
[1] = Stability test after dissolution: visual observation of the solution; format: physicochemical; conditions: in the air
Experimental: (§1) 1.0 g of benzo[c]thiophene-1,3-dihydro-2-oxide and 0.25 g of p-toluenesulfonic acid-hydrate (pTSA, molar ratio: 5/1) were dissolved in 11.0 g of each solvent (solid content: 10 mass %) in composition as shown in Table 3 in the air. The solution was visually observed immediately (early period), 24 hours, and one week after the dissolution.
as §1, with “1,3-dihydroisothianaphthene” for “benzo[c]thiophene-1,3-dihydro-2-oxide”, “0.28” for “0.25”, “11.3” for “11.0”, “4” for “3”
A part of the prepared aqueous solution was delivered by drops onto a glass plate, followed by heating and drying at 120° C. for 1 hour. The generated solid was black. The generation of polyisothianaphthene was confirmed from the measurement of the UV spectrum obtained by adding the product to water.
A part of the prepared solution was delivered by drops onto a glass plate, followed by heating and drying at 120° C. for 1 hour. The generated solid was black. The generation of polyisothianaphthene was confirmed from the measurement of the UV spectrum obtained by adding the product to water.

[2] = Solubility test: amount dissolved in 10 g of solvent, visually inspected; format: physicochemical
Experimental: Benzo[c]thiophene-1,3-dihydro-2-oxide was dissolved a little at a time in 10 g of a solvent, and the amount of dissolution was visually inspected.
1,3-dihydroisothianaphthene was dissolved a little at a time in 10 g of a solvent.

[3] = 4° C., DMSO, pTSA (molar ratio 5/1), solid content 10 mass %
[4] = 25° C., DMSO, pTSA (molar ratio 5/1), solid content 10 mass %
[5] = 25° C., EtOH, pTSA (molar ratio 5/1), solid content 10 mass %
[6] = 25° C., solvent None, catalyst None

Visual observation After 1 week [1, 3]	Visual observation After 24 hours [1, 3]	Visual observation After 1 week [1, 4]	Visual observation After 24 hours [1, 4]	Visual observation After 1 week [1, 5]	Visual observation After 24 hours [1, 5]	Visual observation After 1 week [1, 6]	Visual observation After 24 hours [1, 6]	SMILES	Dissolution amount ([2]; solvent: Dimethyl formamide)	Dissolution amount ([2]; solvent: Dimethyl sulfoxide)	Dissolution amount ([2]; solvent: Ethanol)	Dissolution amount ([2]; solvent: Ethylene glycol)	Dissolution amount ([2]; solvent: Isopropanol)	Dissolution amount ([2]; solvent: Methanol)	Dissolution amount ([2]; solvent: Water)
Pale yellow	Pale yellow	Deep blue	Pale brown	Deep blue	Brownish red	Pale brown	Pale yellow	c1ccc2c(c1)CSC2 [Comparative Example 1, 1,3-dihydroisothianaphthene]	Soluble	Soluble	Soluble	Insoluble	Soluble	Slightly soluble	Insoluble
								[O-][S+]1Cc2ccccc2C1 [Example 1, benzo[c]thiophene-1,3-dihydro-2-oxide]	Soluble	Soluble	Soluble	Soluble	Soluble	Soluble	Soluble
